Here are results for one compound from US20060293395A1, “Methods for treating a mammal before, during and after cardiac arrest” (priority 2004, published 2006).

Each structure is given as a SMILES string. “Also recorded” adds a separate entry of the source.

The subject of one test is male domestic pigs. The test can be described thus: Levosimendan on post-resuscitation myocardial function after beta-adrenergic blockade (propranolol). The class given is in vivo, pig. The following applies: levosimendan added early postresuscitation after propranolol, in comparison with propranolol alone. The procedure: Anesthesia was initiated by intramuscular injection of ketamine (20 mg/kg) and completed by ear vein injection of sodium pentobarbital (30 mg/kg). Additional doses of sodium pentobarbital (8 mg/kg) were injected to maintain anesthesia at intervals of one hour. A cuffed endotracheal tube was advanced into the trachea. Animals were mechanically ventilated with a volume-controlled ventilator (Model MA-1, Puritan-Bennett, Carlsbad, Calif.) with a tidal volume of 15 mL/kg, peak flow of 40 L/min, and FiO2 of 0.21. End-tidal PCO2 (ETCO2) was monitored with an infrared analyzer (Model 01R-7101A, Nihon Kohden Corp, Tokyo, Japan). Respiratory frequency was adjusted to maintain PETCO2 between 35 and 40 mm Hg.
For the measurement of left ventricular functions, a 5.5/7.5 […] biplane with Doppler transesophageal echocardiographic transducer with 4-way flexure (Model 21363A, Hewlett-Packard Co., Medical Products Group, Andover, Mass.) was advanced from the incisor teeth into the esophagus for a distance of approximately 35 cm. For the measurement of aortic pressure, a fluid-filled catheter was advanced from the left femoral artery into the thoracic aorta. For the measurements of right atrial, pulmonary arterial pressures and blood temperature, a 7-French, pentalumen, thermodilution-tipped catheter was advanced from the left femoral vein and flow-directed into the pulmonary artery. A 7-French catheter was advanced from the left cephalic vein into the great cardiac vein for the measurement of great cardiac vein blood gases and lactate. For inducing VF, a 5-French pacing catheter (EP Technologies, Inc., Mountain View, Calif.) was advanced from the right cephalic vein into the right ventricle.
The investigators were blinded to the randomization. Cardiac arrest was induced with 1 to 2 mA AC delivered to the endocardium of the right ventricle. Mechanical ventilation was discontinued after onset of VF. At the end of the 7-min interval of untreated VF, precordial compression was started with a pneumatic piston-driven chest compressor (Thumper, Model 1000, Michigan Instruments, Grand Rapids, Mich.). […] The compression force was adjusted to decrease the anterior-posterior diameter of the chest by 25%. After 5 min of precordial compression, defibrillation was attempted with a 150 J biphasic waveform shock delivered between the right infraclavicular area and the cardiac apex. If an organized cardiac rhythm with mean aortic pressure of more than 60 mm Hg persisted for an interval of 5 min or more, the animal was regarded as successfully resuscitated. All animals had restoration of spontaneous circulation (ROSC) after electrical defibrillation, and were then randomized to three treatment groups: (1) propranolol (0.1 mg/kg bolus at 6 min of VF); (2) propranolol plus levosimendan (at 10 min after post resuscitation, 20 μg/kg over 10 min followed by 0.4 μg/kg/min for 220 min); and (3) equal volumes of saline as placebo.
Measurements were obtained over an interval of 4 hours following resuscitation. After 4 hours, animals were euthanized by intravenous injection of 150 mg kg^−1 pentobarbital. Autopsy was performed to document injuries to the bony thorax and the thoracic and abdominal viscera.

The subject of a further test is Male Sprague-Dawley rats. The test can be described thus: Example 4: levosimendan bolus during cardiopulmonary resuscitation (VF cardiac arrest). The class given is in vivo, rat. The following applies: for ETCO2 / Negative dP/dt / left ventricular diastolic pressure: post-resuscitation (FIG. 23). The procedure:
No anesthetic agents were initially administrated 30 min prior to inducing cardiac arrest. […] Right atrial pressure was measured with a high-sensitivity pressure transducer (model 42584-01; Abbott Critical Care System, North Chicago, Ill.). […] Blood temperature was measured with this sensor. […] Duplicate thermodilution curves were obtained and recorded with the aid of a cardiac output computer (CO-100; Institute of Critical Care Medicine, Palm Springs, Calif.). A PE 50 catheter was advanced through the left femoral artery into the thoracic aorta for sampling arterial blood for analysis of blood gases and for the measurement of aortic pressure with a high-sensitivity pressure transducer (model 42584-01; Abbott Critical Care System). Systolic, diastolic, and the interpreted mean arterial pressure were continuously recorded. […] A 4F polyethylene catheter (model C-PMS-401J; Cook Critical Care, Bloomington, Ind.) was next advanced through the right external jugular vein into the right atrium for inducing VF. A precurved guide wire, supplied with the catheter, was then advanced through the catheter into the right ventricle until an endocardial electrogram was observed. […] Current flow was then reduced to one half and continued for 3 min such as to prevent spontaneous defibrillation. VF was untreated for six min. […] Precordial compressions were performed with a pneumatically driven mechanical chest compressor. These procedures were previously described in greater detail (Von Planta I, supra) and are well-known to those of ordinary skill in the art (see e.g. Tang W, Weil M H, Sun S, Noc M, Yang L, Gazmuri R. Epinephrine increases the severity of postresuscitation myocardial dysfunction. Circulation 1995; 92: 3089-3093 and Sun S, Weil MH, Tang W, Povoas H, Mason E. Combined effect of buffer and adrenergic agent on postresuscitation myocardial function. Pharmacology 1999; 291 (2): 773-777).
Coincident with start of precordial compression, the animals were mechanically ventilated.

In a further test the test system is rats. Briefly: Example 1: feasibility studies and dose titration of levosimendan. The class given is in vivo, rat.
Where [1] appears, read: 20 μg/kg bolus during VF, vs placebo.
[2] abbreviates: 4-hour interval following resuscitation, vs saline placebo (FIG. 22).
[3] abbreviates: 12 μg levosimendan followed by 0.3 μg/kg/min, comparable to 3 μg/kg/min dobutamine.

On to `C[C@@H]1CC(=O)NN=C1c1ccc(NN=C(C#N)C#N)cc1` [Levosimendan], for which, in the test with male domestic pigs, the EF entry is “additional and significant increases”; the FAC result was “additional and significant increases”. In addition, in the test with Male Sprague-Dawley rats (setting [1]), the “cumulative number of electrical shocks required for successful defibrillation” value is reported as “significantly less” and the “interval of CPR prior to successful resuscitation” value is “significantly shorter”. Further, in the test on Male Sprague-Dawley rats (setting [2]), the MAP result is “Significantly greater; also recorded: increases”, the cardiac index entry was “Significantly greater; also recorded: increases” and the dP/dt40 result is given as “Significantly greater; also recorded: increases”. Further, the CPP entry with Male Sprague-Dawley rats (levosimendan vs placebo controls, prior to/or after administration) is “No differences”. The ST segment elevation entry with Male Sprague-Dawley rats (post-resuscitation) was “lesser”. In the test with Male Sprague-Dawley rats, the ETCO2 entry is reported as “increases”, the “Negative dP/dt” value is “increases” and the “left ventricular diastolic pressure” value is on record as “decreased”. Besides, in the test with Male Sprague-Dawley rats (listed as levosimendan), the ETCO2 result is on record as “increased”, the “Negative dP/dt” value is given as “increased” and the “left ventricular diastolic pressure” value was “reduction”. The “duration of post-resuscitation survival” value with Male Sprague-Dawley rats (vs placebo) is listed as “significantly increased”. Besides, in the test on Male Sprague-Dawley rats (vs saline placebo (FIG. 24)), the “peripheral arterial resistance (PAR)” value is reported as “significantly decreased”. In the test on rats (setting [3]), the arterial pressure result is “declines in arterial pressure” and the cardiac output entry is “increases in cardiac output”. In addition, in the test on rats (higher doses of levosimendan), the arterial pressure result is on record as “decreases in arterial pressure”, the cardiac output entry was “additional increases in cardiac output” and the heart rate result was “increases in heart rate”.
